{"source": "paper PMC8203827", "about": "“The Stand-Alone PilZ-Domain Protein MotL Specifically Regulates the Activity of the Secondary Lateral Flagellar System in Shewanella putrefaciens” (Frontiers in Microbiology, 2021)", "target": "T1, MotL (sfGFP-MotL) (Shewanella putrefaciens, UniProt A0ABX8XB40)", "T1 construct": "gene K3G22_17145", "T1 sequence (A0ABX8XB40 1-144)": "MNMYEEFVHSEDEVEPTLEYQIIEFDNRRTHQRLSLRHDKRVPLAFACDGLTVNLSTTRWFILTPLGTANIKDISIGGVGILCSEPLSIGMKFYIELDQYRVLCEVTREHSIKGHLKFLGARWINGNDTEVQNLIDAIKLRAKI", "assay": "radioligand spot binding on nitrocellulose, phosphorimaging", "conditions": "labelled compound ([…]); […] protein, […] Tris-HCl, […] NaCl, […] MgCl2, […] min, RT; protein purified from strain co-producing phosphodiesterase PdeH"}
{"compound": "Nc1nc2c(ncn2[C@@H]2O[C@@H]3COP(=O)(O)O[C@H]4[C@@H](O)[C@H](n5cnc6c(=O)[nH]c(N)nc65)O[C@@H]4COP(=O)(O)O[C@H]3[C@H]2O)c(=O)[nH]1", "note": "[c-di-GMP]", "values": [{"measurement": "radioligand spot binding on nitrocellulose, phosphorimaging", "result": "Produced under these conditions, robust c-di-GMP binding to MotL could be observed"}]}
